In PubChem BioAssay (NCI):
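Each compound was tested at five concentrations against cells in 96-well plates for 48 hours. GI50: concentration for 50% inhibition of growth. TGI: concentration producing complete growth inhibition.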

Columns and labels:
Assay in all cases: NCI-60 cell line screen, 48 h; in the data active = GI50 below about 0.43 µM; inactive = the rest
HS 578T breast = test system: HS 578T breast
MALME-3M melanoma = test system: MALME-3M melanoma
UO-31 renal = test system: UO-31 renal
SNB-19 CNS = test system: SNB-19 CNS
SF-295 CNS = test system: SF-295 CNS
MDA-MB-435 = test system: MDA-MB-435
RPMI-8226 leukemia = test system: RPMI-8226 leukemia
DU-145 prostate = test system: DU-145 prostate
ACHN renal = test system: ACHN renal
HOP-62 NSCLC = test system: HOP-62 NSCLC
LOX IMVI melanoma = test system: LOX IMVI melanoma
U251 CNS = test system: U251 CNS
SK-MEL-28 melanoma = test system: SK-MEL-28 melanoma
OVCAR-3 ovarian = test system: OVCAR-3 ovarian
BT-549 breast = test system: BT-549 breast
A498 renal = test system: A498 renal
786-0 renal = test system: 786-0 renal
CCRF-CEM leukemia = test system: CCRF-CEM leukemia
UACC-257 melanoma = test system: UACC-257 melanoma
SNB-75 CNS = test system: SNB-75 CNS
NCI-H23 lung = test system: NCI-H23 lung
HOP-92 NSCLC = test system: HOP-92 NSCLC
HL-60(TB) leukemia = test system: HL-60(TB) leukemia
M14 melanoma = test system: M14 melanoma
UACC-62 melanoma = test system: UACC-62 melanoma
MDA-MB-231 breast = test system: MDA-MB-231 breast
NCI-H226 lung = test system: NCI-H226 lung
K-562 leukemia = test system: K-562 leukemia
OVCAR-5 ovarian = test system: OVCAR-5 ovarian
NCI/ADR-RES ovarian = test system: NCI/ADR-RES ovarian
MOLT-4 leukemia = test system: MOLT-4 leukemia
SK-MEL-2 melanoma = test system: SK-MEL-2 melanoma
EKVX NSCLC = test system: EKVX NSCLC
SW-620 colon = test system: SW-620 colon
NCI-H522 lung = test system: NCI-H522 lung
IGROV1 ovarian = test system: IGROV1 ovarian
HT29 colon = test system: HT29 colon
HCC-2998 colon = test system: HCC-2998 colon
OVCAR-4 ovarian = test system: OVCAR-4 ovarian
PC-3 prostate = test system: PC-3 prostate
OVCAR-8 ovarian = test system: OVCAR-8 ovarian
T-47D breast = test system: T-47D breast
RXF 393 renal = test system: RXF 393 renal
SR leukemia = test system: SR leukemia
A549 NSCLC = test system: A549 NSCLC
SF-268 CNS = test system: SF-268 CNS
COLO 205 colon = test system: COLO 205 colon
HCT-116 colon = test system: HCT-116 colon
HCT-15 colon = test system: HCT-15 colon
SN12C renal = test system: SN12C renal
SK-OV-3 ovarian = test system: SK-OV-3 ovarian
TK-10 renal = test system: TK-10 renal
KM12 colon = test system: KM12 colon
SF-539 CNS = test system: SF-539 CNS
MCF7 breast = test system: MCF7 breast
SK-MEL-5 melanoma = test system: SK-MEL-5 melanoma

O=C1c2cccc(NCCN=Cc3cc([N+](=O)[O-])ccc3O)c2C(=O)c2c(NCCN=Cc3cc([N+](=O)[O-])ccc3O)cccc21
4.35 µM: TGI (RPMI-8226 leukemia)
19 µM: TGI (SNB-75 CNS)
72 µM: TGI (OVCAR-3 ovarian)
> 100 µM: TGI (UO-31 renal) | TGI (SNB-19 CNS) | TGI (MDA-MB-435) | TGI (ACHN renal) | TGI (SK-MEL-28 melanoma) | TGI (BT-549 breast) | TGI (786-0 renal) | TGI (UACC-257 melanoma) | TGI (NCI-H23 lung) | TGI (HL-60(TB) leukemia) | TGI (M14 melanoma) | TGI (UACC-62 melanoma) | TGI (NCI-H226 lung) | TGI (K-562 leukemia) | TGI (OVCAR-5 ovarian) | TGI (NCI/ADR-RES ovarian) | TGI (EKVX NSCLC) | TGI (SW-620 colon) | TGI (NCI-H522 lung) | TGI (IGROV1 ovarian) | TGI (HT29 colon) | TGI (HCC-2998 colon) | TGI (OVCAR-4 ovarian) | TGI (PC-3 prostate) | TGI (OVCAR-8 ovarian) | TGI (T-47D breast) | TGI (RXF 393 renal) | TGI (SR leukemia) | TGI (A549 NSCLC) | TGI (SF-268 CNS) | TGI (HCT-15 colon) | TGI (SN12C renal) | TGI (SK-OV-3 ovarian) | TGI (TK-10 renal) | TGI (KM12 colon)
31.6 µM: TGI (A498 renal)
71.7 µM: TGI (MDA-MB-231 breast)
29.4 µM: TGI (HS 578T breast)
19.7 µM: TGI (U251 CNS)
52.1 µM: TGI (SF-295 CNS)
59.8 µM: TGI (HOP-62 NSCLC)
9.89 µM: TGI (CCRF-CEM leukemia)
83.2 µM: TGI (MALME-3M melanoma)
81.5 µM: TGI (HCT-116 colon)
inactive: GI50 (HS 578T breast) 2.74 µM | GI50 (MALME-3M melanoma) 16.7 µM | GI50 (UO-31 renal) 8.34 µM | GI50 (SNB-19 CNS) 6.95 µM | GI50 (SF-295 CNS) 2.08 µM | GI50 (MDA-MB-435) 4.28 µM | GI50 (RPMI-8226 leukemia) 1.03 µM | GI50 (DU-145 prostate) 3.94 µM | GI50 (ACHN renal) 5.61 µM | GI50 (HOP-62 NSCLC) 3.37 µM | GI50 (LOX IMVI melanoma) 2.62 µM | GI50 (U251 CNS) 2.65 µM | GI50 (SK-MEL-28 melanoma) 14.9 µM | GI50 (OVCAR-3 ovarian) 4.79 µM | GI50 (BT-549 breast) 36.9 µM | GI50 (A498 renal) 3.73 µM | GI50 (786-0 renal) 7.04 µM | GI50 (CCRF-CEM leukemia) 0.963 µM | GI50 (UACC-257 melanoma) > 100 µM | GI50 (SNB-75 CNS) 2.16 µM | GI50 (NCI-H23 lung) 5.8 µM | GI50 (HOP-92 NSCLC) 3.03 µM | GI50 (HL-60(TB) leukemia) 38.8 µM | GI50 (M14 melanoma) 26.8 µM | GI50 (UACC-62 melanoma) 33 µM | GI50 (MDA-MB-231 breast) 3.12 µM | GI50 (NCI-H226 lung) 3.34 µM | GI50 (K-562 leukemia) 3.67 µM | GI50 (OVCAR-5 ovarian) 31.6 µM | GI50 (NCI/ADR-RES ovarian) > 100 µM | GI50 (MOLT-4 leukemia) 0.648 µM | GI50 (SK-MEL-2 melanoma) 20.5 µM | GI50 (EKVX NSCLC) 16.1 µM | GI50 (SW-620 colon) 1.49 µM | GI50 (NCI-H522 lung) 4.07 µM | GI50 (IGROV1 ovarian) 2.62 µM | GI50 (HT29 colon) 1.26 µM | GI50 (HCC-2998 colon) 5.87 µM | GI50 (OVCAR-4 ovarian) 2.06 µM | GI50 (PC-3 prostate) 3.25 µM | GI50 (OVCAR-8 ovarian) 2.55 µM | GI50 (T-47D breast) 9.38 µM | GI50 (RXF 393 renal) 7.01 µM | GI50 (SR leukemia) 1.49 µM | GI50 (A549 NSCLC) 3.89 µM | GI50 (SF-268 CNS) 2.42 µM | GI50 (COLO 205 colon) 1.78 µM | GI50 (HCT-116 colon) 1.28 µM | GI50 (HCT-15 colon) 30.3 µM | GI50 (SN12C renal) 2.45 µM | GI50 (SK-OV-3 ovarian) 18.9 µM | GI50 (TK-10 renal) 28.5 µM | GI50 (KM12 colon) 2.8 µM
29.1 µM: TGI (LOX IMVI melanoma)
96.4 µM: TGI (SK-MEL-2 melanoma)
84.1 µM: TGI (HOP-92 NSCLC)
58.1 µM: TGI (DU-145 prostate)
20.2 µM: TGI (COLO 205 colon)
16.7 µM: TGI (MOLT-4 leukemia)

CCC(C)[C@H]1O[C@]2(C=C[C@@H]1C)C[C@@H]1C[C@@H](C/C=C(\C)[C@@H](OC3C[C@H](OC)C(O[C@H]4C[C@H](OC)[C@@H](O)[C@H](C)O4)[C@H](C)O3)[C@@H](C)/C=C/C=C3\CO[C@@H]4[C@H](O)C(C)=C[C@@H](C(=O)O1)[C@]34O)O2 (some centres undefined)
1.41 µM: TGI (HOP-92 NSCLC)
1.53 µM: TGI (HCT-116 colon)
7.86 µM: TGI (OVCAR-5 ovarian)
2.59 µM: TGI (HL-60(TB) leukemia)
6.95 µM: TGI (SN12C renal)
3.27 µM: TGI (NCI-H226 lung)
1.14 µM: TGI (A498 renal)
4.76 µM: TGI (OVCAR-4 ovarian)
5.81 µM: TGI (MDA-MB-231 breast)
1.93 µM: TGI (NCI-H522 lung)
4.77 µM: TGI (NCI/ADR-RES ovarian)
9.09 µM: TGI (SNB-75 CNS)
5.74 µM: TGI (UACC-257 melanoma)
4.16 µM: TGI (NCI-H23 lung)
1.62 µM: TGI (DU-145 prostate) | TGI (COLO 205 colon)
6.53 µM: TGI (HOP-62 NSCLC)
1.78 µM: TGI (HT29 colon)
5.72 µM: TGI (MCF7 breast)
9.73 µM: TGI (OVCAR-8 ovarian)
2.87 µM: TGI (HS 578T breast)
1.56 µM: TGI (786-0 renal)
1.73 µM: TGI (UO-31 renal)
50 µM: TGI (RPMI-8226 leukemia)
5.96 µM: TGI (KM12 colon)
2.33 µM: TGI (M14 melanoma)
2.28 µM: TGI (SK-MEL-5 melanoma)
7.04 µM: TGI (A549 NSCLC)
6.79 µM: TGI (HCT-15 colon)
3.58 µM: TGI (T-47D breast)
7.64 µM: TGI (UACC-62 melanoma)
8.23 µM: TGI (SK-OV-3 ovarian)
inactive: GI50 (HS 578T breast) 1.02 µM | GI50 (UO-31 renal) 0.807 µM | GI50 (SNB-19 CNS) 3.38 µM | GI50 (RPMI-8226 leukemia) 1.58 µM | GI50 (DU-145 prostate) 0.907 µM | GI50 (ACHN renal) 1.72 µM | GI50 (HOP-62 NSCLC) 1.37 µM | GI50 (U251 CNS) 1.42 µM | GI50 (SK-MEL-28 melanoma) 2.08 µM | GI50 (OVCAR-3 ovarian) 0.904 µM | GI50 (BT-549 breast) 0.864 µM | GI50 (A498 renal) 0.5 µM | GI50 (786-0 renal) 0.728 µM | GI50 (UACC-257 melanoma) 1.56 µM | GI50 (SNB-75 CNS) 2.74 µM | GI50 (NCI-H23 lung) 1.23 µM | GI50 (HOP-92 NSCLC) 0.65 µM | GI50 (HL-60(TB) leukemia) 1.16 µM | GI50 (M14 melanoma) 1.04 µM | GI50 (UACC-62 melanoma) 1.53 µM | GI50 (MDA-MB-231 breast) 1.42 µM | GI50 (NCI-H226 lung) 1.08 µM | GI50 (SF-539 CNS) 1.5 µM | GI50 (OVCAR-5 ovarian) 2.06 µM | GI50 (NCI/ADR-RES ovarian) 1.41 µM | GI50 (SK-MEL-2 melanoma) 1.24 µM | GI50 (NCI-H522 lung) 0.89 µM | GI50 (MCF7 breast) 1.85 µM | GI50 (HT29 colon) 0.857 µM | GI50 (HCC-2998 colon) 0.843 µM | GI50 (OVCAR-4 ovarian) 1.67 µM | GI50 (OVCAR-8 ovarian) 1.72 µM | GI50 (T-47D breast) 1.09 µM | GI50 (RXF 393 renal) 0.939 µM | GI50 (SK-MEL-5 melanoma) 0.991 µM | GI50 (A549 NSCLC) 1.22 µM | GI50 (SF-268 CNS) 1.01 µM | GI50 (COLO 205 colon) 0.86 µM | GI50 (HCT-116 colon) 0.752 µM | GI50 (HCT-15 colon) 1.72 µM | GI50 (SN12C renal) 1.65 µM | GI50 (SK-OV-3 ovarian) 2.17 µM | GI50 (TK-10 renal) 1.07 µM | GI50 (KM12 colon) 1.67 µM
6.47 µM: TGI (U251 CNS)
2.14 µM: TGI (SF-268 CNS)
4.49 µM: TGI (SF-539 CNS)
7.23 µM: TGI (SK-MEL-28 melanoma)
3.5 µM: TGI (RXF 393 renal)
1.67 µM: TGI (HCC-2998 colon)
41.1 µM: TGI (SNB-19 CNS)
5.63 µM: TGI (ACHN renal)
1.66 µM: TGI (OVCAR-3 ovarian) | TGI (BT-549 breast)
2.6 µM: TGI (SK-MEL-2 melanoma)
2.74 µM: TGI (TK-10 renal)
